Measured values as given in US9353089B2, “Compositions and methods for the treatment of malaria” (Saint Louis University, priority 2013, dated 2016).
Where two headings read alike, the source gives them in different places.

Experiments:
[1] = molecular target: Plasmepsin-2 (PM-2; Plm II) (Plasmodium falciparum (isolate HB3), UniProt P46925); assay: Plasmepsin-2 enzyme inhibition assay; type: biochemical
Outline: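 Enzymes activated in pH 4.5 citrate/DTT buffer, then assayed in 50 mM sodium acetate pH 4.7, 0.01% Tween-20. Compounds added before fluorogenic peptide substrate (final 20 µM); 60 min at room temperature, fluorescence Ex/Em 360/535 nm, IC50 by curve fit.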

[2] = molecular target: recombinant human Cathepsin D (Homo sapiens (Human), UniProt P07339); assay: Cathepsin D enzyme inhibition FRET assay; type: biochemical; settings: Table 8; read-out: CatD IC50
Experimental: The enzymatic inhibition activity assays were determined using the fluorescence resonance energy transfer (FRET) assay. The assays were performed in a 384-well plate format. […] The concentration of Cathepsin D was 20 ng/μL, and 1 ng/μL of Cathepsin E was used. CatD and CatE were activated by incubation in assay buffer (0.1 M NaOAc, 0.2 M NaCl, pH 3.5) at room temperature for 30 min. Subsequently, the rhBACE-1 substrate (R&D Systems, catalog# ES004), the Cathepsin D and Cathepsin E substrate (R&D Systems, Catalog # ES001) were added accordingly to final concentration 20 μM to initiate the reaction. After 60 min incubation at room temperature, the time-resolved fluorescence at Ex/Em=360 nm/460 nm was measured on an EnVision multilabel plate reader (Perkin-Elmer). The analytical software, GraphPad Prism 5.0 (GraphPad Software, Inc., USA) was used to generate IC50 values via non-linear regression analysis, which are reported in Tables 8-13 below as BACE1 IC50 values.

[3] = Human Plasma Protein Binding (hPPB) assay; type: in vitro ADME; settings: rapid equilibrium dialysis
Experimental: Human Plasma Protein Binding (hPPB) of test compounds was measured by rapid equilibrium dialysis device using the RED Device Inserts. In the reaction of 5 h, the drug concentration of the sample chamber and buffer chamber can be determined, through which we can calculated hPPB of test compounds. RED Device Inserts and Single-Use RED Base Plate were purchased from the Linden Bioscience, Woburn, Mass. (Taiwan, Thermo scientific). […]. Pooled human plasma from healthy individuals in this study was obtained from the Southern Medical University (China) and was stored frozen at −20° C. until use. SHZ-88A Reciprocating thermostatic oscillator was purchased from Taicang City Experimental Equipment Co. (China). Chlorpromazine (>99% in purity, positive control) and Phenacetin (>99% in purity, internal standard, IS) were all purchased from the Sigma Chemical Co. (China). Chlorpromazine HCl was used as a positive control. An aliquot ([…]) of plasma was accurately added into the sample chamber, and 6 μL compounds solution (500 μM, 50% DMSO) was added (n=3). An aliquot (500 μL) of Dulbecco solution was added into the buffer chamber. These solution were all oscillated for 5 hours (37° C., 90 rpm). Then, 50 μL solution in sample chamber was removed, 50 μL Dulbecco solution was added, and mixed. Also, 50 μL solution in buffer chamber was removed, 50 μL plasma was added, and mixed. 200 μL ACN (including internal Standard, 100 ng/mL) were added separately, oscillated, mixed, and centrifuged (20 min, 15000 g). An aliquot (50 μL) of the supernatant was accurately transferred to a clean 1.5 mL test tube and 100 μL H2O was added, mixed. 10 μL of mixture was separately injected into LC-MS system for determination of the drug concentration in the sample chamber and buffer chamber. The data were analyzed using the following equation: % hPPB=[1−(Concentrationbuffer chamber/Concentrationplasma chamber)]*100% (Barre, et al., 1985, which is incorporated herein by reference).

[4] = system: Plasmodium falciparum Dd2 (multi-drug resistant); assay: In vitro antimalarial assay (malaria SYBR Green I-based fluorescence, MSF), Dd2; type: cell-based
Experimental: In vitro antimalarial activity was determined by a malaria SYBR Green I-based fluorescence (MSF) method described previously by Smilkstein et al. (2004, which is incorporated herein by reference) with slight modification (Winter, et al., 2006, which is incorporated herein by reference). Stock solutions of each test drug were prepared in DMSO at a concentration of 20 mM. The drug solutions were serially diluted with culture medium and distributed to asynchronous parasite cultures on 96-well plates in quadruplicate in a total volume of 100 μL to achieve 0.5% parasitemia with a 2% hematocrit in a total volume of 100 pt. The plates were then incubated for 72 h at 37° C. After incubation, 100 μL of lysis buffer with 0.2 μL/mL SYBR Green I was added to each well. The plates were incubated at 37° C. for an hour in the dark and then placed in a 96-well fluorescence plate reader (Spectramax Gemini-EM; Molecular Diagnostics) with excitation and emission wavelengths at 497 nm and 520 nm, respectively, for measurement of fluorescence.
Antimalarial potency of compounds was determined by this technique for both Plasmodium falciparum 3D7 (CQ-sensitive) and Dd2 (multi-drug resistant) strains.

[5] = system: Plasmodium falciparum 3D7 (CQ-sensitive); assay: In vitro antimalarial assay (malaria SYBR Green I-based fluorescence, MSF), 3D7; type: cell-based
Outline: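 Asynchronous P. falciparum 3D7 cultures (0.5% parasitemia, 2% hematocrit) were exposed to serially diluted compounds, in quadruplicate. Growth was then quantified by SYBR Green I fluorescence after adding lysis buffer containing 0.2 μL/mL dye.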

[6] = DD2, 72 h, read-out: Pf Dd2 IC50 (μM, 72 hr)
[7] = 3D7, 48 h, read-out: Pf 3D7 IC50 (μM, 48 hr), 48 hr
[8] = 3D7, 72 h, read-out: Pf 3D7 IC50 (μM, 72 hr), 72 hr
[9] = 3D7, read-out: 3D7 IC50 (μM), Table 13
[10] = 3D7, read-out: Pf3D7 IC50 (μM), Table 10
[11] = 3D7, read-out: Pf 3D7 IC50, Table 8

Sequence of Plasmepsin-2 (PM-2; Plm II) (P46925 125-453 limits assumed): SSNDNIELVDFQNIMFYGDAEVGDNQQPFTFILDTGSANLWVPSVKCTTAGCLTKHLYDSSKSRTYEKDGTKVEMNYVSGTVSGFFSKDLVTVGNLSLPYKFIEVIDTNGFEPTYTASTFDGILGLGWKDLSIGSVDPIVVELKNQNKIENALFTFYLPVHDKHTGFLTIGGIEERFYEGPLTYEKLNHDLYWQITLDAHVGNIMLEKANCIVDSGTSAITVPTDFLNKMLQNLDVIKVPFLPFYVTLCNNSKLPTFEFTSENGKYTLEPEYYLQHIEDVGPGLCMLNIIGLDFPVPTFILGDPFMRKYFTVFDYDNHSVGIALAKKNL
Sequence of recombinant human Cathepsin D (P07339 65-412): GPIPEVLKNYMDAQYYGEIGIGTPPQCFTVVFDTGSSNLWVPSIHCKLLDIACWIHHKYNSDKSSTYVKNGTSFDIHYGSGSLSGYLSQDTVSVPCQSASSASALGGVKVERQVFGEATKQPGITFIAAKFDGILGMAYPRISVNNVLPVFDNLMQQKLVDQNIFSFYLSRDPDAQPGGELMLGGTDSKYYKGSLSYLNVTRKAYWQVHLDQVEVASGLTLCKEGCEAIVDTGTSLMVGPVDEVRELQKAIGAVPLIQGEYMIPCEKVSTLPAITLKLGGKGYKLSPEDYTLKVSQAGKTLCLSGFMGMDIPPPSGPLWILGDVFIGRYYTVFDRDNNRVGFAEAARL

Row | SMILES | IC50 ([1]; Table 8, read-out: PM-II IC50) [nM] | IC50 ([1]; Table 13, read-out: PM-2 IC50) [nM] | IC50 [2] [nM] | hPPB (%) [3] [%] | IC50 [4, 6] [µM] | IC50 ([4]; DD2, read-out: Dd2 IC50 (μM)) [µM] | IC50 [5, 7] [µM] | IC50 [5, 8] [µM] | IC50 [5, 9] [µM] | IC50 [5, 10] [µM] | IC50 [5, 11] [µM]
1 | COc1ccc(C2(c3ccc(OC)cc3)NC(=N)N(C3CCOCC3)C2=O)cc1 [Example 176, 2-imino-5,5-bis(4-methoxyphenyl)-3-(oxan-4-yl)-imidazolidin-4-one] | 7 | 6.81 | > 10000 | 78.1 | 0.526 | 0.526 | 0.404 | 0.459 | 0.459 | 0.459 | 0.453
2 | COc1ccc(C2(c3ccc(OC)cc3)NC(=N)N(C3CCN(C(=O)OC(C)(C)C)CC3)C2=O)cc1 [Example 206, tert-butyl 4-[2-imino-4,4-bis(4-methoxyphenyl)-5-oxoimidazolidin-1-yl]piperidine-1-carboxylate] | 2 | 2.76 | 520 | 99.7 | 0.367 |  | 0.339 | 0.383 | 0.436 | 0.436 | 0.383
3 | COc1ccc(C2(c3ccc(OC)cc3)NC(=N)N(CC3CCOCC3)C2=O)cc1 [Example 275, 2-imino-5,5-bis(4-methoxyphenyl)-3-(oxan-4-ylmethyl)imidazolidin-4-one] | 17 | 16.9 | 934 | 88.7 | 0.442 | 0.442 | 0.571 | 0.463 | 0.521 | 0.463 | 0.463
